In ChEMBL document CHEMBL6078615, “Sesquilignans: Current research and potential prospective” (Eur J Med Chem, 2024):
Values after ≈ are worked out from the molar mass of the structure shown.

What was measured:
[1] = tested on: SH-SY5Y; assay: Induction of apoptosis in human SH-SY5Y cells assessed as increase in caspase-3 activity at 25 uM incubated for 72 hrs by colorimetric assay relative to control; format: functional
[2] = tested on: SH-SY5Y; assay: Inhibition of H2O2-induced oxidative stress in human SH-SY5Y cells assessed as residual ROS level at 25 uM incubated for 3 hrs relative to control; format: functional
[3] = Inhibition of alpha-glucosidase (unknown origin); parameters: species or system Homo sapiens
[4] = target: Acetylcholinesterase (Homo sapiens, UniProt P22303); assay: Inhibition of AChE (unknown origin)
Acetylcholinesterase, sequence (P22303 whole entry): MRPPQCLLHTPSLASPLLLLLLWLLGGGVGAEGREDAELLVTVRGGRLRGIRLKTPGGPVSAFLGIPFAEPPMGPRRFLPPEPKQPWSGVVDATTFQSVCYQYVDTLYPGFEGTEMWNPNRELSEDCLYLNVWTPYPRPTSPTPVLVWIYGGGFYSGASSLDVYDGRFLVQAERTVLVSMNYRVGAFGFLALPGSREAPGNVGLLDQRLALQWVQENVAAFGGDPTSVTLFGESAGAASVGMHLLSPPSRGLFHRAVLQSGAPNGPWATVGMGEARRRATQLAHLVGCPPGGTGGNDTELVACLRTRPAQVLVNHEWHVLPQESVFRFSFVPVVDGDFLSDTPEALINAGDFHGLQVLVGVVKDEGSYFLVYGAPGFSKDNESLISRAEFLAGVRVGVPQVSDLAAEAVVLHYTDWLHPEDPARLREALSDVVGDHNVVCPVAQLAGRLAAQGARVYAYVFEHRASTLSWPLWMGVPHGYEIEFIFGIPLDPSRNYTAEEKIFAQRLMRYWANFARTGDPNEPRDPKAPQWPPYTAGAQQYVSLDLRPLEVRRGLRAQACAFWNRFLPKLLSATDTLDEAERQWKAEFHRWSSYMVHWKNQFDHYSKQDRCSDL

[5] = tested on: RAW264.7; assay: Anti-inflammatory activity in mouse RAW264.7 cells assessed as inhibition of LPS-induced NO production pre-incubated for 2 hrs followed by LPS-stimulation for 22 hrs by Griess reaction assay; format: functional; parameters: concentration or dose not given beside the values; details: time 24 hrs
[6] = tested on: HL-60; assay: Antiproliferative activity against human HL-60 cells assessed as reduction in cell viability incubated for 72 hrs by MTT assay; format: functional, cell-based; details: HL-60, 72 h
[7] = tested on: HepG2; assay: Cytotoxicity against human HepG2 cells assessed as reduction in cell viability by MTT assay; format: functional, cell-based
[8] = tested on: MCF7; assay: Cytotoxicity against human MCF7 cells assessed as reduction in cell viability incubated for 72 hrs by MTT assay; format: functional, cell-based; details: MCF7, 72 h
[9] = Antioxidant activity assessed as DPPH radical scavenging activity incubated for 30 mins by spectrophotometric analysis; format: functional
[10] = tested on: HeLa; assay: Cytotoxicity against human HeLa cells assessed as reduction in cell viability incubated for 48 hrs by MTT assay; format: functional, cell-based
[11] = tested on: CNE-2; assay: Anticancer activity against human CNE-2 cells assessed as reduction in cell growth; format: functional, cell-based
[12] = Cytotoxicity against human HUVEC cells assessed as reduction in cell growth incubated for 48 hrs by CCK-8 method; format: toxicity, cell-based
[13] = tested on: RAW264.7; assay: Antiinflammatory activity in LPS-induced mouse RAW264.7 cells assessed as inhibition of IL-6 secretion preincubated for 1 hr followed by LPS addition for 24 hrs by ELISA method; format: functional, cell-based
[14] = tested on: RAW264.7; assay: Antiinflammatory activity in LPS-induced mouse RAW264.7 cells assessed as inhibition of IL-1beta secretion preincubated for 1 hr followed by LPS addition for 24 hrs by ELISA method; format: functional, cell-based
[15] = tested on: RAW264.7; assay: Antiinflammatory activity in LPS-induced mouse RAW264.7 cells assessed as inhibition of TNFalpha secretion preincubated for 1 hr followed by LPS addition measured for 24 hrs by ELISA method; format: functional, cell-based
[16] = tested on: BV-2; assay: Anti-inflammatory activity against mouse BV-2 cells assessed as inhibition of LPS-induced NO production pretreated for 2 hrs followed stimulated with LPS for 22 hrs by Griess reaction assay; format: functional, cell-based
[17] = tested on: K562; assay: Antiproliferative activity against human K562 cells assessed as reduction in cell viability incubated for 72 hrs by CCK-8 assay; format: functional, cell-based; details: K562, 72 h
[18] = tested on: Ebolavirus; assay: Antiviral activity against Ebola virus; format: functional, organism-based; details: Orthoebolavirus
[19] = tested on: BV-2; assay: Anti-inflammatory activity against mouse BV-2 cells assessed as inhibition of LPS-induced NO production at 10 uM pretreated for 2 hrs followed stimulated with LPS for 22 hrs by Griess reaction assay relative to control; format: functional; details: time 24 hrs
[20] = tested on: HT-29; assay: Antiproliferative activity against human HT-29 cells assessed as reduction in cell viability after 72 hrs by MTS assay; format: functional, cell-based; details: HT-29, 72 h

With COc1cc([C@@H](OC)[C@@H](CO)Oc2c(OC)cc([C@@H]3Oc4c(OC)cc([C@H](O)[C@@H](O)CO)cc4[C@H]3CO)cc2OC)ccc1O the Activity [1] was 90.74% and the Activity [2] was 90.74%.

Work on COc1cc([C@H](O)[C@@H](CO)Oc2ccc([C@@H](O)[C@@H](CO)Oc3c(OC)cc(CCCO)cc3OC)cc2OC)ccc1O yielded an Activity [2] of 77.58%.

For COc1cc(O)cc([C@@H]2c3c(cc(OC)c4c3[C@H](CO)[C@H](c3ccc(O)c(OC)c3)O4)C[C@H](CO)[C@H]2CO)c1, the IC50 [3] was 5.17 µM.

For C=CCc1ccc(O)c(-c2cc(CC=C)cc(-c3cc(CC=C)ccc3O)c2O[C@@H]2C[C@@H](C(C)C)C=C[C@]2(C)O)c1, the IC50 [4] was 6.55 µM.

For COc1cc([C@@H]2c3cc(O[C@H](CO)[C@@H](O)c4ccc(O)c(OC)c4)c(OC)cc3C[C@H](CO)[C@@H]2CO)ccc1O, the Activity [1] was 79.36%.

Work on C=CCc1ccc2c(c1)O[C@@H](c1ccc(O)c(O)c1)[C@H](Cc1cc(O)c(O)cc1CC=C)O2 yielded an Activity [5] of 9.87%.

COc1cc([C@@H](O)[C@@H](C)Oc2ccc([C@H]3O[C@@H](c4ccc(O)c(OC)c4)[C@H](C)[C@H]3C)cc2OC)ccc1O gave an Activity [5] of 18.1%, an IC50 [6] of 11 µM and an IC50 [7] of 11 µM. The IC50 [8] was 9.8 µM.

Work on CC(Cc1ccc(O)cc1)c1cc([C@H]2O[C@@H](c3ccc(O)c(O)c3)[C@H](C)[C@H]2C)ccc1O (some centres not stated) yielded an IC50 [9] of 1.12 µM.

For CCO[C@@H](c1ccc(O)c(OC)c1)[C@H](CO)Oc1ccc([C@H](O)[C@@H](CO)Oc2ccc(CCCO)cc2OC)cc1OC, the Activity [2] was 71.1%.

COc1cc([C@@H](O)[C@@H](CO)Oc2ccc([C@H](O)[C@H](CO)Oc3c(OC)cc([C@H](O)[C@H](O)CO)cc3OC)cc2OC)ccc1O gave an Activity [2] of 74.78%.

COc1cc([C@@H]2c3cc(O[C@H](CO)[C@H](O)c4ccc(O)c(OC)c4)c(OC)cc3C[C@H](CO)[C@H]2CO)ccc1O gave an Activity [1] of 80.72%.

Oc1ccc(/C=C/C[C@@H]2CC(C(O)c3ccc(O)cc3)CO[C@H]2c2ccc(O)cc2)cc1 (some centres not stated) gave an Activity [5] of 33%.

For COc1cc([C@@H](O)[C@@H](CO)Oc2ccc([C@@H]3OC[C@@H]4[C@H]3CO[C@H]4c3ccc(O)c(OC)c3)cc2OC)ccc1O, the IC50 [3] was 3.05 µM.

For COc1cc(CC(CO)C(CO)Cc2ccc(OC(CO)C(O)c3ccc(O)c(OC)c3)c(OC)c2)ccc1O (configuration not stated), the IC50 [10] was 195 µg/mL (≈ 348 µM) and the EC50 [11] was 2.4 µg/mL (≈ 4.3 µM).

For COc1cc([C@@H](O)[C@@H](CO)Oc2c(OC)cc([C@@H]3Oc4c(OC)cc([C@H](O)[C@H](O)CO)cc4[C@H]3CO)cc2OC)ccc1O, the Activity [2] was 75.63%.

With COCc1c(-c2ccc(O)c(OC)c2)oc2c(OC)cc([C@H]3OC[C@@H]4[C@H]3CO[C@@H]4c3ccc(O)c(OC)c3)cc12 the IC50 at 48 h [12] was 32.8 µM.

COc1ccc([C@@H]2O[C@H](c3ccc(OC)c(O[C@@H](C)[C@@H](OC)c4ccc(OC)c(O)c4)c3)[C@@H](C)[C@@H]2C)cc1O gave an Activity [5] of 18.1% and an IC50 [8] of 8.4 µM.

COc1cc([C@H](OC)[C@@H](CO)Oc2ccc([C@@H](O)[C@H](CO)Oc3ccc(CCCO)cc3OC)cc2OC)ccc1O showed an Activity [2] of 74.22%.

For COC[C@H]1c2cc(C[C@@H]3C(=O)OC[C@H]3Cc3ccc(O)c(OC)c3)ccc2O[C@@H]1c1ccc(O)c(OC)c1, the Activity [5] was 8.59%.

Work on COc1cc([C@@H](O)[C@@H](CO)Oc2c(OC)cc([C@@H]3OC[C@@H]4[C@H]3CO[C@H]4c3cc(OC)c(O)c(OC)c3)cc2OC)ccc1O yielded an IC50 [3] of 15.4 µM.

Compound COc1cc([C@H](O)[C@@H](CO)Oc2c(OC)cc([C@H]3OC[C@H]4[C@@H]3CO[C@@H]4c3cc(OC)c(O)c(OC)c3)cc2OC)ccc1O has an IC50 [13] of 2.4 µM, an IC50 [14] of 10.9 µM and an IC50 [15] of 50.9 µM.

OC/C=C/c1ccc2c(c1)O[C@H](c1ccc3c(c1)O[C@@H](c1ccc(O)c(O)c1)[C@H](CO)O3)[C@@H](CO)O2 showed an IC50 [3] of 0.62 µM.

Work on COc1cc([C@H]2OC[C@H]3[C@@H]2CO[C@@H]3c2cc(OC)c(OC)c(OC)c2)ccc1O[C@@H](CO)[C@H](O)c1cc(OC)c(OC)c(OC)c1 yielded an IC50 [16] of 10.9 µM.

For COc1cc([C@@H](O)[C@@H](CO)Oc2c(OC)cc([C@@H]3Oc4c(OC)cc([C@H](O)[C@@H](O)CO)cc4[C@H]3CO)cc2OC)ccc1O, the Activity [2] was 63.72%.

Work on COc1cc(C[C@H]2C(=O)OC[C@@H]2Cc2cc(OC)c3c(c2)[C@H](CO)[C@@H](c2ccc(O)c(OC)c2)O3)ccc1O yielded an IC50 [17] of 51.1 µg/mL (≈ 95.2 µM).

For COc1cc([C@@H](O)[C@@H](C)Oc2ccc([C@@H]3O[C@H](c4ccc(O)c(OC)c4)[C@H](C)[C@H]3C)cc2OC)ccc1O, the EC50 [18] was 6.95 µM.

COc1cc([C@@H](O)[C@@H](CO)Oc2ccc([C@@H](O)[C@H](CO)Oc3c(OC)cc(CCCO)cc3OC)cc2OC)ccc1O showed an Activity [1] of 77.58%.

Work on COc1cc([C@@H](O)[C@@H](CO)Oc2ccc([C@H](O)[C@H](CO)Oc3c(OC)cc([C@H](O)[C@@H](O)CO)cc3OC)cc2OC)ccc1O yielded an Activity [2] of 75.8%.

C=CCc1ccc(O)c(-c2cc(CC=C)cc(-c3cc(CC=C)ccc3O)c2O[C@H]2CC(C)(C)[C@@H]3CC[C@]4(C)C[C@]23CC[C@H]4O)c1 gave an IC50 [4] of 4.58 µM.

With OC[C@@H]1Oc2ccc([C@H]3OC[C@H]4[C@@H]3CO[C@@H]4c3ccc(O)c(O)c3)cc2O[C@H]1c1ccc(O)c(O)c1 [PRINCEPIN] the IC50 [16] was 1.28 µM.

Compound COc1cc(C[C@@H](CO)[C@H](CO)Cc2cc(OC)c3c(c2)[C@H](CO)[C@@H](c2ccc(O)c(OC)c2)O3)ccc1O has an IC50 [10] of 114 µg/mL (≈ 211 µM) and an EC50 [11] of 2 µg/mL (≈ 3.7 µM).

Work on COc1cc([C@H]2Oc3c(OC)cc(C[C@H]4C(=O)OC[C@@H]4Cc4ccc(OC)c(OC)c4)cc3[C@@H]2CO)ccc1O yielded an IC50 [17] of 38.5 µg/mL (≈ 69.9 µM).

Work on COc1cc(C[C@H]2COC(=O)[C@@H]2Cc2cc(OC)c3c(c2)[C@H](CO)[C@@H](c2ccc(O)c(OC)c2)O3)ccc1O yielded an IC50 [17] of 53.5 µg/mL (≈ 99.7 µM).

In the case of COc1cc([C@H](OC)[C@@H](CO)Oc2c(OC)cc([C@@H]3Oc4c(OC)cc([C@H](O)[C@@H](O)CO)cc4[C@H]3CO)cc2OC)ccc1O, the Activity [2] is reported as 76.21%.

COc1cc([C@H]2OC[C@H]3[C@@H]2CO[C@@H]3c2ccc(O[C@H](CO)[C@@H](O)c3ccc(O)c(OC)c3)c(OC)c2)ccc1O gave an IC50 [3] of 6.73 µM.

With COc1cc(/C=C/C=O)cc2c1O[C@H](c1ccc3c(c1)[C@H](CO)[C@@H](c1ccc(O)cc1)O3)[C@H]2CO the IC50 [16] was 38.9 µM.

C=CCc1ccc(Oc2cc(CC=C)cc(-c3cc(CC=C)ccc3O)c2O)cc1 showed an IC50 [4] of 10 µM.

COc1cc([C@H]2OC[C@H]3[C@@H]2CO[C@@H]3c2cc(OC)c3c(c2)[C@H](CO)[C@@H](c2ccc(O)c(OC)c2)O3)ccc1O showed an inhibition at 10 µM [19] of 50.7%.

With COc1cc([C@@H]2c3c(cc(OC)c4c3[C@H](CO)[C@H](c3ccc(O)c(OC)c3)O4)C[C@H](CO)[C@H]2CO)ccc1O the Activity [5] was 19.46%.

For COc1cc([C@@H]2c3c(cc(OC)c4c3[C@H](CO)[C@H](c3ccc(O[C@@H]5O[C@H](CO)[C@@H](O)[C@H](O)[C@H]5O)c(OC)c3)O4)C[C@H](CO)[C@H]2CO)ccc1O, the Activity [5] was 64.82%.

In the case of COc1ccc([C@@H](O)[C@@H](C)Oc2ccc([C@H]3O[C@H](c4ccc(OC)c(OC)c4)[C@H](C)[C@H]3C)cc2OC)cc1OC, the EC50 [18] is reported as 1.7 µM.

COc1cc([C@H]2O[C@H](c3ccc4c(c3)OCO4)[C@H](C)[C@H]2C)ccc1O[C@H](C)[C@H](O)c1ccc2c(c1)OCO2 gave an IC50 [20] of 10 µM.

COc1cc([C@@H](O)[C@H](CO)Oc2ccc([C@H]3OC[C@H]4[C@@H]3CO[C@@H]4c3ccc(O)c(OC)c3)cc2OC)ccc1O showed an IC50 [3] of 5.17 µM.

Work on COc1ccc([C@@H](O)[C@@H](C)Oc2ccc([C@H]3O[C@H](c4ccc5c(c4)OCO5)[C@H](C)[C@H]3C)cc2OC)cc1OC yielded an Activity [5] of 2.62%.

In the case of COc1cc([C@H]2OC[C@H]3[C@@H]2CO[C@@H]3c2cc(OC)c(O[C@@H](CO)[C@@H](OC)c3ccc(O)c(OC)c3)c(OC)c2)ccc1O, the IC50 [9] is reported as 55.8 µM.

COc1ccc([C@@H]2O[C@H](c3ccc(OC)c(O[C@H](C)[C@@H](O)c4ccc(O)c(OC)c4)c3)[C@H](C)[C@H]2C)cc1O gave an Activity [5] of 18.1% and an IC50 [8] of 8.8 µM.

COc1cc([C@H](O)[C@@H](CO)Oc2ccc([C@@H](O)[C@H](CO)Oc3c(OC)cc([C@H](O)[C@@H](O)CO)cc3OC)cc2OC)ccc1O gave an Activity [2] of 75.9%.
